Reference: patent US20110136727A1, “Compositions and methods for rapid selection of pathogen binding agents” (priority 2009, published 2011)
Where a SMILES comes first, the peptide text is derived from it. Where no end group is shown, it is not given here.

Test system: LPS
Assay: not given
Settings: Morales et al., 2009; cited from earlier work
In the case of “EFSNPTAQVFPDFWMSDGSC [NEG-1, negative control peptide, reference compound]”, the “Binding to the bacteria and to LPS” value is given as “bind neither to the bacteria nor to LPS”.

Test system: not listed separately
Assay: Serum stability (serum incubation and western blot)
Assay type: in vitro ADME, human
Settings: fresh human serum, 37° C., pH=7.4, starting concentration 10 μM, western blot
Method: Serum stability of Construct 1. Over the last decade, there was a considerable interest in developing antimicrobial peptides as intravenously administered antibiotics. In this respect, a common criticism of peptide-based drugs has been their susceptibility to endogenous proteases. […] To test the in vitro stability of Construct 1 we used a serum-incubation and western blot analysis. Construct 1 was incubated in fresh human serum at 37° C. and pH=7.4 with a starting concentration of 10 μM. Samples were withdrawn at predetermined time points and each sample diluted 20-fold with loading buffer prior to analysis by western blot (FIG. 7).
For “Construct 1: tetravalent mPEG-maleimide (MW 20 kDa) conjugated with QF8 peptide (HRKPKFRHHHFKWKHWKGSC; also: conjugated with tetravalent 20 kDa mPEG-maleimide)”, the “Time for which proteolysis was resisted” value was “more than 8 hours”.

Same assay, conditions: human serum, western blot probed with Streptavidin-AlexaFluor 647 (FIG. 7)
In the case of N=C(N)NCCC[C@H](NC(=O)[C@H](Cc1ccccc1)NC(=O)[C@H](CCCCN)NC(=O)[C@@H]1CCCN1C(=O)[C@H](CCCCN)NC(=O)[C@H](CCCNC(=N)N)NC(=O)[C@@H](N)Cc1c[nH]cn1)C(=O)N[C@@H](Cc1c[nH]cn1)C(=O)N[C@@H](Cc1c[nH]cn1)C(=O)N[C@@H](Cc1c[nH]cn1)C(=O)N[C@@H](Cc1ccccc1)C(=O)N[C@@H](CCCCN)C(=O)N[C@@H](Cc1c[nH]c2ccccc12)C(=O)N[C@@H](CCCCN)C(=O)N[C@@H](Cc1c[nH]cn1)C(=O)N[C@@H](Cc1c[nH]c2ccccc12)C(=O)N[C@@H](CCCCN)C(=O)NCC(=O)N[C@@H](CO)C(=O)N[C@@H](CS)C(=O)O [SEQ ID NO: 33] (H-HRKPKFRHHHFKWKHWKGSC-OH; N-terminus and C-terminus assumed), the “Degradation in human serum, monomeric peptide vs tetravalent PEG scaffold” value is reported as “degraded much faster”. For “Construct 1: tetravalent mPEG-maleimide (MW 20 kDa) conjugated with QF8 peptide (HRKPKFRHHHFKWKHWKGSC; also: conjugated with tetravalent 20 kDa mPEG-maleimide)”, the “Degradation in human serum, monomeric peptide vs tetravalent PEG scaffold” value was “prolonged the half-life”.

Test system: E. coli O111:B4
Assay: LPS competition assay on random-sequence peptide microarray (binding of fluorescently labeled bacteria with and without excess free LPS)
Settings: fluorescent intensity of SYTO 9 labeled E. coli O111:B4 binding to the arrayed peptide without vs with excess non-labeled LPS of the same strain
Method: FIG. 2. Schematic representation of the bacterial binding assay. PEG3,400 linker modified random sequence peptide microarrays were incubated (FIG. 2A) with fluorescently labeled bacteria and (FIG. 2B) with bacteria in presence of excess free LPS.
Microarray screening. Aliquots of the bacterial cultures were centrifuged to isolate the cells and were washed twice with an equal volume of PBS buffer (pH 7.2). After each wash, bacteria were resuspended and centrifuged. Cells were fluorescently stained with SYTO 9 green-fluorescent cell-permeable nucleic acid dye (Molecular Probes, Eugene, Oreg.). Dye was added to a 500 microliter suspension of bacteria at a concentration of 20 μM in PBS buffer and shaken for 1 hr at 37 degrees Centigrade. After incubation, the cell suspension was centrifuged, isolated, and washed twice with 1 ml PBS buffer. […] Each array was equipped with an Agilent hybridization chamber, and then 450 microliter solution of E. coli in PBS buffer supplemented with 0.03% FBS was added. The arrays were gently shaken on a platform for 1 hr at 37 degrees Centigrade temperature. After incubation, the hybridization chamber was removed, and unbound cells were washed away from the array by dipping it into a 50 ml solution of the hybridization buffer. This step was repeated twice, and the buffer was changed between washings. A final wash with nanopure water was used to remove salts from the array. Slides were then briefly centrifuged at 1500 rpm for 2 min to dry the arrays.
Data analysis. The arrays were scanned using a laser scanner (PERKIN-ELMER PROSCANARRAY HT) and quantified using GENEPIX PRO6.0 (Molecular Devices, Inc.) in order to determine the fluorescence intensity of each probe and identify its corresponding peptide sequence. A statistical comparison of microarray data was done with GENESPRING GX 7.3 (AGILENT, INC, Palo Alto, Calif., USA) by importing the image-processed data from GENEPIX PRO6.0. Median signal intensities were used in the calculations. For statistical comparisons, each slide was normalized to 50th percentile. Also, measurements of less than 0.01 were set to 0.01. Results were represented on a heatmap in order to be able to compare the difference in intensities with and without excess LPS.
LPS competition assay. Since approximately 90% of bacterial surface is comprised of LPS it was expected that bacteria will bind to random peptide microarray mostly through LPS. […] Same number of cells stained with SYTO-9® was used to probe the microarrays with and without excess non-labeled LPS from the same strain (FIG. 2).
With 1 (WWRRKKWHKHKRKHPRFGSC) [compound 1] the “Ratio ECO/(ECO + LPS)” value was 18.76. For 2 (HWKRRHKHKWPKRHPHKGSC) [compound 2], the “Ratio ECO/(ECO + LPS)” value was 13.22. In the case of 3 (HWKRHHRPKHKHHRHKHGSC) [compound 3], the “Ratio ECO/(ECO + LPS)” value is reported as 11.48. In the case of 4 (HFHHWKWKHHHHRHRRFGSC) [compound 4], the “Ratio ECO/(ECO + LPS)” value is reported as 11.28. With 5 (WKKKRKHRHKKHWHPWRGSC) [compound 5] the “Ratio ECO/(ECO + LPS)” value was 10.3. In the case of 6 (RHWRKPRKWHKKWPPHRGSC) [compound 6], the “Ratio ECO/(ECO + LPS)” value is reported as 9.881. For 7 (WKRPWHRWHPKRRKWRHGSC) [compound 7], the “Ratio ECO/(ECO + LPS)” value was 9.611. With 8 (WHHWFHHKKKKPWWKKKGSC) [compound 8] the “Ratio ECO/(ECO + LPS)” value was 8.832. With 9 (HFRKWHKRRWKHHKKWKGSC) [compound 9] the “Ratio ECO/(ECO + LPS)” value was 8.435. In the case of 10 (HPWWWHHKKRRHHKHKKGSC) [compound 10], the “Ratio ECO/(ECO + LPS)” value is reported as 5.345. In the case of 11 (PWWKWRKRKHPKKHHKRGSC) [compound 11], the “Ratio ECO/(ECO + LPS)” value is reported as 4.687. For 12 (WKWKRHWKWPHRRKHFFGSC) [compound 12], the “Ratio ECO/(ECO + LPS)” value was 4.576. For 13 (WHRKFFRWRFHRHKKHKGSC) [compound 13], the “Ratio ECO/(ECO + LPS)” value was 4.547. In the case of 14 (HRKRPKRHHKRHWPRWKGSC) [compound 14], the “Ratio ECO/(ECO + LPS)” value is reported as 4.429. With 15 (KKFHPHFKPWHFRHKKPGSC) [compound 15] the “Ratio ECO/(ECO + LPS)” value was 4.303. With 16 (KHPFWHPHRRHKKKRWFGSC) [compound 16] the “Ratio ECO/(ECO + LPS)” value was 4.283. For 17 (WHHKWRFWKHFRHKRHFGSC) [compound 17], the “Ratio ECO/(ECO + LPS)” value was 4.216. In the case of 18 (SIADIHKRKFRVRRKHIGSC) [compound 18], the “Ratio ECO/(ECO + LPS)” value is reported as 4.04. In the case of 19 (PWKFHRHWHHHKHWKWKGSC) [compound 19], the “Ratio ECO/(ECO + LPS)” value is reported as 3.644. For 20 (HHWWRKRRRKRHRKHWKGSC) [compound 20], the “Ratio ECO/(ECO + LPS)” value was 3.527. In the case of 21 (RWQKKVKMKRDHVYFRMGSC) [compound 21], the “Ratio ECO/(ECO + LPS)” value is reported as 3.526. In the case of 22 (RWFPKKHHHRWRKWWKKGSC) [compound 22], the “Ratio ECO/(ECO + LPS)” value is reported as 3.506. For 23 (HHHHKRKHFWRPRHPRKGSC) [compound 23], the “Ratio ECO/(ECO + LPS)” value was 3.493. With 24 (HKRHKKHFKFFRWHRKWGSC) [compound 24] the “Ratio ECO/(ECO + LPS)” value was 3.428. In the case of 25 (TKRIHKWPQDAYRIRRGGSC) [compound 25], the “Ratio ECO/(ECO + LPS)” value is reported as 3.355. With 26 (RTYWNYGIMRHNKTRKGGSC) [compound 26] the “Ratio ECO/(ECO + LPS)” value was 3.331. With 27 (WHWHHWKHKKRRHHWRRGSC) [compound 27] the “Ratio ECO/(ECO + LPS)” value was 3.261. In the case of 28 (KHWHWHKRKKHHRKFFWGSC) [compound 28], the “Ratio ECO/(ECO + LPS)” value is reported as 3.0313. With 29 (RKHHKKPHKRKRWKWWPGSC) [compound 29] the “Ratio ECO/(ECO + LPS)” value was 3.021. For 30 (RFHWKHRRKWKHHHPRRGSC) [compound 30], the “Ratio ECO/(ECO + LPS)” value was 2.944. For 31 (HWHHRWWHHWKHPHHWRGSC) [compound 31], the “Ratio ECO/(ECO + LPS)” value was 2.854. For 32 (WKFRHRHHRHHWHKKWKGSC) [compound 32], the “Ratio ECO/(ECO + LPS)” value was 2.844. In the case of 33 (HRKPKFRHHHFKWKHWKGSC) [compound 33], the “Ratio ECO/(ECO + LPS)” value is reported as 2.786. For 34 (RRWWRKRFWHHRWHRRKGSC) [compound 34], the “Ratio ECO/(ECO + LPS)” value was 2.423. For 35 (HRWWFKKKHRFRWWKRWGSC) [compound 35], the “Ratio ECO/(ECO + LPS)” value was 2.404. With 36 (RFFFHKWRRWRRRKPPRGSC) [compound 36] the “Ratio ECO/(ECO + LPS)” value was 2.378. In the case of 37 (RWRRHKHFKRPHRKHKRGSC) [compound 37], the “Ratio ECO/(ECO + LPS)” value is reported as 2.375. With 38 (WWHHKWFKHKKFWRHKFGSC) [compound 38] the “Ratio ECO/(ECO + LPS)” value was 2.349. With 39 (WKPWFHPRKHHKWRHWHGSC) [compound 39] the “Ratio ECO/(ECO + LPS)” value was 2.334. For 40 (KHKWWRWHKWHWWFRKHGSC) [compound 40], the “Ratio ECO/(ECO + LPS)” value was 2.322. In the case of 41 (KWKHHKKFRKRKRHWFHGSC) [compound 41], the “Ratio ECO/(ECO + LPS)” value is reported as 2.316. In the case of 42 (HWHPRWHKHKFKHWRWHGSC) [compound 42], the “Ratio ECO/(ECO + LPS)” value is reported as 2.273. For 43 (WRFKHFRWKRFKHHHKKGSC) [compound 43], the “Ratio ECO/(ECO + LPS)” value was 2.263. With 44 (IYNKRSQVRRKGFKKKYGSC) [compound 44] the “Ratio ECO/(ECO + LPS)” value was 2.169. In the case of 45 (RKRKWHHPWHWRRKRRWGSC) [compound 45], the “Ratio ECO/(ECO + LPS)” value is reported as 2.136. In the case of 46 (RHWRPKFRKFRWWRWHHGSC) [compound 46], the “Ratio ECO/(ECO + LPS)” value is reported as 2.125. With 47 (FHKKRHFKRRHKFWWWRGSC) [compound 47] the “Ratio ECO/(ECO + LPS)” value was 2.114. In the case of 48 (HKWHRKKFHKHRFKHHKGSC) [compound 48], the “Ratio ECO/(ECO + LPS)” value is reported as 2.112. In the case of 49 (WFWKHKKWRRHPRKWHWGSC) [compound 49], the “Ratio ECO/(ECO + LPS)” value is reported as 2.104. With 50 (EPKLWFKPRRGGYRHRHGSC) [compound 50] the “Ratio ECO/(ECO + LPS)” value was 2.035. In the case of 51 (HRKWHWPWKWPWKRKRWGSC) [compound 51], the “Ratio ECO/(ECO + LPS)” value is reported as 2.033. With 52 (RPKPHRHWKPKFPHHHWGSC) [compound 52] the “Ratio ECO/(ECO + LPS)” value was 2.031. In the case of 53 (WRRSTPVGPWTWFGKFLGSC) [compound 53], the “Ratio ECO/(ECO + LPS)” value is reported as 1.974. For 54 (RRFRHWWRWRKRRRKWRGSC) [compound 54], the “Ratio ECO/(ECO + LPS)” value was 1.914.

Test system: E. coli O111:B4
Assay: In vitro growth inhibition assay (turbidity at 600 nm)
Assay type: cell-based
Settings: added at mid-logarithmic phase, QF8 at 25 micrometers, NEG-1 at 100 micrometers, Construct 1 at 7, 10, and 25 micrometers, vs untreated bacteria
Method: FIG. 6. Bacterial growth inhibition assays in presence of (a) growth media; (b) negative control peptide NEG1 at 100 micromolar; (c) 25 micromolar peptide QF8 (SEQ ID NO: 33 Table 2); (d) 7 micrommolar QF8-PEG Construct 1; (e) 10 micromolar QF8-PEG Construct 1; (f) 17.5 micromolar QF8-PEG construct 1; (g) 25 micromolar QF8-PEG Construct 1; (h) 100 IU penicillin/streptomycin as a positive control.
In vitro growth inhibition assays. Growth of E. coli O111:B4 was assessed in the presence of different concentrations of NEG-1, QF8, and Construct 1 using turbidity at 600 nm. […]
In vitro inhibition assays. […] Growth was monitored as turbidity at 600 nm. Experiments were performed at 30 degrees Centigrade in microtiter plates with 100 microliters of culture using a Spectra Max Plus microtiter plate reader with Soft Max Pro Software (Molecular devices). The turbidity was measured every 5 minutes and the plate was shaken for 30 seconds before each measurement. Bacteria concentration was calculated according to the McFarland general method using the absorbance at 600 nm of a series of mixtures of 1% barium chloride and 1% sulfuric acid.
In the case of “Construct 1: tetravalent mPEG-maleimide (MW 20 kDa) conjugated with QF8 peptide (HRKPKFRHHHFKWKHWKGSC; also: conjugated with tetravalent 20 kDa mPEG-maleimide)”, the “Growth of E. coli O111:B4 (growth curves, bacterial count)” value is reported as “dramatic decrease in bacterial count”. In the case of “EFSNPTAQVFPDFWMSDGSC [NEG-1, negative control peptide, reference compound]”, the “Growth of E. coli O111:B4 (growth curves, bacterial count)” value is reported as “no changes”.
